Test results taken from PubChem BioAssay AID256 (DTP/NCI, 2004).
Values joined by “and” are separate entries in the source; they are usually repeats but may differ in a detail not shown here. Equal entries are not always repeated. Inconclusive results and toxic doses are left out. Rule for the calls: active = survival T/C of 150% or more; inactive = T/C below 125% in these data.

Test system: CD2F1 mice, L1210 leukemia ip, survival T/C
Experiment: NCI In Vivo Anticancer Drug Screen. Data for tumor model L1210 Leukemia (intraperitoneal) in CD2F1 (CDF1) mice
Conditions: higher = longer survival
How it was run: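 In this screen, transplantable tumors were grown in mice given either the compound or its vehicle. Results were expressed as the treated measurement relative to the control measurement.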

[1] = endpoint: mean survival time, dose: 100.0 mg/kg/injection, schedule: Q01DX009 (ip), vehicle: saline with Tween-80
[2] = endpoint: mean survival time, dose: 200.0 mg/kg/injection, schedule: Q01DX009 (ip), vehicle: saline with Tween-80
[3] = endpoint: mean survival time, dose: 400.0 mg/kg/injection, schedule: Q01DX009 (ip), vehicle: saline with Tween-80
[4] = endpoint: mean survival time, dose: 100.0 mg/kg/injection, schedule: Q04DX003 (ip), vehicle: saline
[5] = endpoint: mean survival time, dose: 200.0 mg/kg/injection, schedule: Q04DX003 (ip), vehicle: saline
[6] = endpoint: mean survival time, dose: 400.0 mg/kg/injection, schedule: Q04DX003 (ip), vehicle: saline
[7] = endpoint: mean survival time, dose: 100.0 mg/kg/injection, schedule: Q04DX003 (ip), vehicle: saline with Tween-80
[8] = endpoint: mean survival time, dose: 200.0 mg/kg/injection, schedule: Q04DX003 (ip), vehicle: saline with Tween-80
[9] = endpoint: mean survival time, dose: 50.0 mg/kg/injection, schedule: Q01DX009 (ip), vehicle: saline with Tween-80
[10] = endpoint: mean survival time, dose: 100.0 mg/kg/injection, schedule: Q01DX001 (ip), vehicle: saline with Tween-80
[11] = endpoint: mean survival time, dose: 100.0 mg/kg/injection, schedule: Q01DX009 (ip), vehicle: saline
[12] = endpoint: mean survival time, dose: 200.0 mg/kg/injection, schedule: Q01DX009 (ip), vehicle: saline
[13] = endpoint: mean survival time, dose: 400.0 mg/kg/injection, schedule: Q01DX009 (ip), vehicle: saline

Measured: T/C

O=S(=O)(Cl)OC(CCl)C(OS(=O)(=O)Cl)C(OS(=O)(=O)Cl)C(CCl)OS(=O)(=O)Cl (stereo not drawn)
inactive: [1] 92 % of control | [2] 100 % of control | [3] 100 % of control

CC(=O)c1ccc(O)cc1O
inactive: endpoint: mean survival time, dose: 100.0 mg/kg/injection, schedule: Q01DX001 (ip), vehicle: saline 102 % of control and 98 % of control | endpoint: mean survival time, dose: 200.0 mg/kg/injection, schedule: Q01DX001 (ip), vehicle: saline 102 % of control and 98 % of control | endpoint: mean survival time, dose: 400.0 mg/kg/injection, schedule: Q01DX001 (ip), vehicle: saline 107 % of control and 104 % of control

O=c1ccccn1CC(O)S(=O)(=O)O (stereo not drawn)
inactive: [4] 95 % of control | [5] 92 % of control | [6] 100 % of control

CC(Br)C(=O)NC(CC(N)=O)C(=O)O (stereo not drawn)
inactive: [7] 102 % of control | [8] 98 % of control

O=C(Nc1ccccc1C(F)(F)F)n1c(=S)[nH]c2cc([N+](=O)[O-])ccc21
inactive: [9] 90 % of control | [1] 105 % of control | [2] 94 % of control

O=S(=O)(F)c1ccc(O)cc1
inactive: endpoint: mean survival time, dose: 25.0 mg/kg/injection, schedule: Q01DX009 (ip), vehicle: saline + alcohol 93 % of control | endpoint: mean survival time, dose: 25.0 mg/kg/injection, schedule: Q04DX003 (ip), vehicle: saline with Tween-80 93 % of control | endpoint: mean survival time, dose: 50.0 mg/kg/injection, schedule: Q01DX001 (ip), vehicle: saline with Tween-80 96 % of control | endpoint: mean survival time, dose: 50.0 mg/kg/injection, schedule: Q01DX009 (ip), vehicle: saline + alcohol 95 % of control and 100 % of control | endpoint: mean survival time, dose: 50.0 mg/kg/injection, schedule: Q04DX003 (ip), vehicle: saline with Tween-80 93 % of control | [10] 95 % of control | endpoint: mean survival time, dose: 100.0 mg/kg/injection, schedule: Q01DX009 (ip), vehicle: saline + alcohol 93 % of control and 95 % of control | endpoint: mean survival time, dose: 100.0 mg/kg/injection, schedule: Q04DX002 (ip), vehicle: saline with Tween-80 103 % of control and 107 % of control | [7] 101 % of control

COc1cc2c(cc1OC)C(CCN)=NCC2
inactive: endpoint: mean survival time, dose: 25.0 mg/kg/injection, schedule: Q01DX009 (ip), vehicle: saline sonified 98 % of control | endpoint: mean survival time, dose: 50.0 mg/kg/injection, schedule: Q01DX009 (ip), vehicle: saline sonified 98 % of control | endpoint: mean survival time, dose: 100.0 mg/kg/injection, schedule: Q01DX009 (ip), vehicle: saline sonified 93 % of control | [4] 97 % of control

CCCCCCCCCCCCN1C(C)=CS/C1=C\C=C\c1scc(C)[n+]1CCCCCCCCCCCC
inactive: endpoint: mean survival time, dose: 0.78 mg/kg/injection, schedule: Q01DX009 (ip), vehicle: saline with Tween-80 123 % of control

COc1ccc(CCN(C=O)CCc2ccc(OC)c(OC)c2)cc1OC
inactive: endpoint: mean survival time, dose: 12.5 mg/kg/injection, schedule: Q01DX009 (ip), vehicle: other 98 % of control | endpoint: mean survival time, dose: 25.0 mg/kg/injection, schedule: Q01DX009 (ip), vehicle: other 101 % of control | endpoint: mean survival time, dose: 50.0 mg/kg/injection, schedule: Q01DX009 (ip), vehicle: other 93 % of control | endpoint: mean survival time, dose: 100.0 mg/kg/injection, schedule: Q01DX009 (ip), vehicle: other 103 % of control | endpoint: mean survival time, dose: 200.0 mg/kg/injection, schedule: Q01DX009 (ip), vehicle: other 103 % of control

S=C(S)NN1CCCC1
inactive: endpoint: mean survival time, dose: 25.0 mg/kg/injection, schedule: Q01DX009 (ip), vehicle: saline with Tween-80 101 % of control | [9] 100 % of control | [7] 92 % of control

CC(C)(O)/C=C/C(=O)[C@](C)(O)[C@H]1[C@H](O)C[C@@]2(C)[C@@H]3CC=C4[C@@H](C=C(O)C(=O)C4(C)C)[C@]3(C)C(=O)C[C@]12C
inactive: endpoint: median survival time, dose: 0.5 mg/kg/injection, schedule: Q01DX005 (ip), vehicle: water 113 % of control | endpoint: median survival time, dose: 1.0 mg/kg/injection, schedule: Q01DX005 (ip), vehicle: water 110 % of control

CCN(C)c1cc2c3c(c1)CCCN3CCC2
inactive: endpoint: mean survival time, dose: 1.25 mg/kg/injection, schedule: Q01DX009 (ip), vehicle: saline 103 % of control | endpoint: mean survival time, dose: 2.5 mg/kg/injection, schedule: Q01DX009 (ip), vehicle: saline 104 % of control | endpoint: mean survival time, dose: 5.0 mg/kg/injection, schedule: Q01DX001 (ip), vehicle: saline 100 % of control | endpoint: mean survival time, dose: 5.0 mg/kg/injection, schedule: Q01DX009 (ip), vehicle: saline 98 % of control | endpoint: mean survival time, dose: 10.0 mg/kg/injection, schedule: Q01DX001 (ip), vehicle: saline 101 % of control | endpoint: mean survival time, dose: 20.0 mg/kg/injection, schedule: Q01DX001 (ip), vehicle: saline 102 % of control

CCOc1ccc2nc3cc(N)ccc3c(N)c2c1
inactive: endpoint: mean survival time, dose: 25.0 mg/kg/injection, schedule: Q01DX009 (ip), vehicle: saline 101 % of control | endpoint: mean survival time, dose: 50.0 mg/kg/injection, schedule: Q01DX009 (ip), vehicle: saline 113 % of control | [11] 122 % of control and 101 % of control | [4] 114 % of control | [5] 105 % of control | [6] 105 % of control

CCCCCCCCCCNC(=O)C[n+]1cccc(C(=O)NCc2ccccc2)c1
inactive: endpoint: mean survival time, dose: 12.5 mg/kg/injection, schedule: Q01DX009 (ip), vehicle: saline sonified 90 % of control | endpoint: mean survival time, dose: 12.5 mg/kg/injection, schedule: Q04DX003 (ip), vehicle: saline sonified 104 % of control | endpoint: mean survival time, dose: 25.0 mg/kg/injection, schedule: Q04DX003 (ip), vehicle: saline sonified 104 % of control | endpoint: mean survival time, dose: 50.0 mg/kg/injection, schedule: Q04DX003 (ip), vehicle: saline sonified 101 % of control

O=C(Nc1ccccc1F)c1ccccc1Cl
inactive: [11] 98 % of control | [4] 106 % of control | [12] 92 % of control | [5] 104 % of control | [13] 98 % of control | [6] 97 % of control

NNC(=O)CCc1ccccc1Br
inactive: [9] 92 % of control and 102 % of control | [1] 102 % of control and 103 % of control | [7] 100 % of control | [2] 93 % of control | [8] 97 % of control

O=C/C=C/Nc1ccccc1
inactive: [11] 94 % of control | [12] 102 % of control | [13] 96 % of control

CN(C)c1ccc([N+](=O)[O-])cc1[N+](=O)[O-]
inactive: endpoint: mean survival time, dose: 62.5 mg/kg/injection, schedule: Q01DX001 (ip), vehicle: Klucel (hydroxypropylcellulose) (HPC) 94 % of control | endpoint: mean survival time, dose: 125.0 mg/kg/injection, schedule: Q01DX001 (ip), vehicle: Klucel (hydroxypropylcellulose) (HPC) 94 % of control | endpoint: mean survival time, dose: 250.0 mg/kg/injection, schedule: Q01DX001 (ip), vehicle: Klucel (hydroxypropylcellulose) (HPC) 92 % of control | endpoint: mean survival time, dose: 500.0 mg/kg/injection, schedule: Q01DX001 (ip), vehicle: Klucel (hydroxypropylcellulose) (HPC) 102 % of control

Cc1ccccc1S(=O)(=O)F
inactive: [9] 103 % of control | [1] 107 % of control | [7] 92 % of control | [8] 89 % of control

COc1ccc2c(c1)CCc1cnn(C3OC(COC(C)=O)C(OC(C)=O)C(OC(C)=O)C3OC(C)=O)c1-2 (stereo not drawn)
inactive: endpoint: mean survival time, dose: 12.5 mg/kg/injection, schedule: Q01DX005 (ip), vehicle: other 92 % of control | endpoint: mean survival time, dose: 25.0 mg/kg/injection, schedule: Q01DX005 (ip), vehicle: other 90 % of control | endpoint: mean survival time, dose: 50.0 mg/kg/injection, schedule: Q01DX005 (ip), vehicle: other 87 % of control

CC(C)(SSC(C)(C)C(N)C(=O)O)C(N)C(=O)O (stereo not drawn)
inactive: [10] 108 % of control | [1] 94 % of control | endpoint: mean survival time, dose: 200.0 mg/kg/injection, schedule: Q01DX001 (ip), vehicle: saline with Tween-80 101 % of control | [2] 93 % of control | endpoint: mean survival time, dose: 400.0 mg/kg/injection, schedule: Q01DX001 (ip), vehicle: saline with Tween-80 109 % of control | [3] 90 % of control

S=c1cc(-c2ccccc2)ss1
inactive: [1] 97 % of control | [2] 97 % of control | [3] 98 % of control
